Consider 17 compounds from PubChem BioAssay AID210 (DTP/NCI, 2004).

This experiment concerns CD2F1 mice, ip Colon 26 adenocarcinoma, median survival T/C. Briefly: NCI In Vivo Anticancer Drug Screen. Data for tumor model Colon 26 Adenocarcinoma (intraperitoneal) in CD2F1 (CDF1) mice. Conditions: endpoint: median survival time, higher = longer survival. Here is the method: The antitumor activity of compounds was measured in mice bearing transplantable tumors. Survival or tumor size were measured and the results are expressed as the measurement made in the treated group (T) divided by the measurement made in the vehicle treated control group (C). The tumor model used in this assay is Colon 26 Adenocarcinoma (intraperitoneal) in CD2F1 (CDF1) mice

The mark [1] stands for this setting: dose: 6.25 mg/kg/injection, schedule: Q04DX003 (ip), vehicle: saline.
Where [2] appears, read: dose: 12.5 mg/kg/injection, schedule: Q04DX003 (ip), vehicle: saline.
[3] abbreviates: dose: 25.0 mg/kg/injection, schedule: Q04DX003 (ip), vehicle: saline.
[4] abbreviates: dose: 50.0 mg/kg/injection, schedule: Q04DX003 (ip), vehicle: saline.
Setting [5] is: dose: 100.0 mg/kg/injection, schedule: Q04DX003 (ip), vehicle: saline.

Inconclusive results and toxic doses are left out.

`CC[C@H](CC[C@@H](C)[C@H]1CC[C@H]2[C@@H]3CC=C4C[C@@H](OC(C)=O)CC[C@]4(C)[C@H]3CC[C@]12C)C(C)C`: the T/C runs as follows: (dose: 25.0 mg/kg/injection, schedule: Q04DX002 (ip), vehicle: Klucel (hydroxypropylcellulose) (HPC)) 88 % of control; (dose: 50.0 mg/kg/injection, schedule: Q04DX002 (ip), vehicle: Klucel (hydroxypropylcellulose) (HPC)) 92 % of control; (dose: 100.0 mg/kg/injection, schedule: Q04DX002 (ip), vehicle: Klucel (hydroxypropylcellulose) (HPC)) 102 % of control; (dose: 200.0 mg/kg/injection, schedule: Q04DX002 (ip), vehicle: Klucel (hydroxypropylcellulose) (HPC)) 90 % of control; (dose: 400.0 mg/kg/injection, schedule: Q04DX002 (ip), vehicle: Klucel (hydroxypropylcellulose) (HPC)) 97 % of control.

Take `O=c1c(O)c(-c2ccc(O)c(O)c2)oc2cc(O)cc(O)c12`: the T/C is, setting by setting: (dose: 100.0 mg/kg/injection, schedule: Q04DX003 (ip), vehicle: other) 89 % of control; (dose: 800.0 mg/kg/injection, schedule: Q04DX003 (ip), vehicle: other) 87 % of control.

Regarding `COc1cc([C@@H]2c3cc4c(cc3[C@@H](OC3OC5CO[C@@H](c6cccs6)OC5C(O)C3O)[C@H]3COC(=O)[C@H]23)OCO4)cc(OC)c1O` (stereo partly specified), the T/C reads like this: (dose: 5.0 mg/kg/injection, schedule: Q03DX002 (ip), vehicle: other) 90 % of control; (dose: 10.0 mg/kg/injection, schedule: Q03DX002 (ip), vehicle: other) 92 % of control; (dose: 30.0 mg/kg/injection, schedule: Q03DX002 (ip), vehicle: other) 104 % of control.

In the case of `COc1cc(NS(C)(=O)=O)ccc1Nc1c2ccccc2nc2ccccc12`, the T/C reads like this: (dose: 0.5 mg/kg/injection, schedule: Q04DX002 (ip), vehicle: other) 111 % of control; (dose: 0.5 mg/kg/injection, schedule: Q04DX003 (ip), vehicle: other) 98 % of control; (dose: 1.0 mg/kg/injection, schedule: Q04DX002 (ip), vehicle: other) 119 % of control; (dose: 1.0 mg/kg/injection, schedule: Q04DX003 (ip), vehicle: other) 112 % of control; (dose: 2.0 mg/kg/injection, schedule: Q04DX003 (ip), vehicle: other) 117 % of control; (dose: 4.0 mg/kg/injection, schedule: Q04DX002 (ip), vehicle: other) 151 % of control. The T/C reads like this: (dose: 8.0 mg/kg/injection, schedule: Q04DX002 (ip), vehicle: other) 185 % of control; (dose: 8.0 mg/kg/injection, schedule: Q04DX003 (ip), vehicle: other) 156 % of control; (dose: 16.0 mg/kg/injection, schedule: Q04DX002 (ip), vehicle: other) 240 % of control; (dose: 16.0 mg/kg/injection, schedule: Q04DX003 (ip), vehicle: other) 170 % of control.

As to `COc1cc([C@@H]2c3cc4c(cc3[C@@H](OC3OC5COC(C)OC5C(O)C3O)[C@H]3COC(=O)[C@H]23)OCO4)cc(OC)c1O` (stereo partly specified), the T/C runs as follows: (dose: 25.0 mg/kg/injection, schedule: Q03DX002 (ip), vehicle: other) 103 % of control; (dose: 32.0 mg/kg/injection, schedule: Q04DX003 (ip), vehicle: saline) 151 % of control; (dose: 40.0 mg/kg/injection, schedule: Q03DX002 (ip), vehicle: other) 120 % of control; (dose: 60.0 mg/kg/injection, schedule: Q03DX002 (ip), vehicle: other) 107 % of control; (dose: 64.0 mg/kg/injection, schedule: Q04DX003 (ip), vehicle: saline) 193 % of control.

As for `O=C([O][Hg][CH2]C1COC([CH2][Hg][O]C(=O)c2ccccc2)CO1)c1ccccc1` (stereo unspecified), the T/C is 89 % of control (dose: 37.5 mg/kg/injection, schedule: Q04DX003 (ip), vehicle: saline with Tween-80) and 94 % of control (dose: 75.0 mg/kg/injection, schedule: Q04DX003 (ip), vehicle: saline with Tween-80).

As to `Oc1ccc(C2CCCCC2)cc1CN1CCCCC1`, the T/C (dose: 3.12 mg/kg/injection, schedule: Q04DX003 (ip), vehicle: saline) was 112 % of control; the T/C under setting [1] is 114 % of control; the T/C under setting [2] is 112 % of control; the T/C under setting [3] is 104 % of control; the T/C under setting [4] is 115 % of control; the T/C under setting [5] is 120 % of control.

On to `C1CN(P2(N3CC3)=NP(N3CC3)(N3CC3)=NP(N3CC3)(N3CC3)=N2)CCO1` (stereo unspecified), for which the T/C under setting [1] was 92 % of control, the T/C under setting [2] was 121 % of control and the T/C under setting [4] is 163 % of control.

On to `COc1cc(C[C@H]2c3cc(OC)c(OC)cc3CCN2C)c(Oc2cc3c(cc2OC)-c2c(OC)c(OC)cc4c2[C@H](C3)N(C)CC4)cc1OC`, for which the T/C runs as follows: under setting [3], 89 % of control; under setting [4], 95 % of control; under setting [5], 90 % of control; (dose: 200.0 mg/kg/injection, schedule: Q04DX003 (ip), vehicle: saline) 93 % of control; (dose: 400.0 mg/kg/injection, schedule: Q04DX003 (ip), vehicle: saline) 95 % of control.

Take `NC(=O)c1cn(C2OC(CO)C(O)C2O)c2ncnc(N)c12` (stereo unspecified): where the note is “dose: 2.0 mg/kg/injection, schedule: Q04DX003 (ip), vehicle: Klucel (hydroxypropylcellulose) (HPC)”, the T/C was 156 % of control.

Take `CN(C)CCNc1cccc2c1C(=O)c1cccc(NCCN(C)C)c1C2=O`: the T/C by setting is: (dose: 1.88 mg/kg/injection, schedule: Q01DX009 (ip), vehicle: saline) 103 % of control; (dose: 3.75 mg/kg/injection, schedule: Q01DX009 (ip), vehicle: saline) 108 % of control; (dose: 7.5 mg/kg/injection, schedule: Q01DX009 (ip), vehicle: saline) 99 % of control; (dose: 15.0 mg/kg/injection, schedule: Q01DX009 (ip), vehicle: saline) 113 % of control.

As for `CN(C)C(=O)c1cccc(COc2ccc(N3C(N)=NC(N)=NC3(C)C)cc2Cl)c1`, the T/C by setting is: (dose: 24.0 mg/kg/injection, schedule: Q06HX018 (ip), vehicle: saline) 96 % of control; (dose: 36.0 mg/kg/injection, schedule: Q06HX018 (ip), vehicle: saline) 98 % of control.

As to `CC[C@](O)(C(=O)O)c1cc2n(c(=O)c1CO)Cc1cc3ccccc3nc1-2`, the T/C is 114 % of control under setting [1], 111 % of control under setting [2] and 121 % of control under setting [3].

For `COc1cccc2c1C(=O)c1c(O)c3c(c(O)c1C2=O)C[C@@](O)(/C(C)=N\O)C[C@@H]3OC1CC(N)C(O)C(C)O1` (stereo partly specified), the T/C runs as follows: (dose: 10.0 mg/kg/injection, schedule: Q07DX002 (ip), vehicle: saline) 105 % of control; (dose: 15.0 mg/kg/injection, schedule: Q07DX002 (ip), vehicle: saline) 110 % of control; (dose: 23.0 mg/kg/injection, schedule: Q07DX002 (ip), vehicle: saline) 115 % of control; (dose: 35.0 mg/kg/injection, schedule: Q07DX002 (ip), vehicle: saline) 119 % of control.

Turning to `COc1cc2oc(=O)ccc2cc1[C@@H]1OC(=O)C2(C)O[C@@H]12` (stereo partly specified), the T/C runs as follows: (dose: 0.15 mg/kg/injection, schedule: Q01DX009 (ip), vehicle: water) 91 % of control; (dose: 0.31 mg/kg/injection, schedule: Q01DX009 (ip), vehicle: water) 106 % of control; (dose: 0.62 mg/kg/injection, schedule: Q01DX009 (ip), vehicle: water) 111 % of control; (dose: 1.25 mg/kg/injection, schedule: Q01DX009 (ip), vehicle: water) 94 % of control; (dose: 2.5 mg/kg/injection, schedule: Q01DX009 (ip), vehicle: water) 88 % of control; (dose: 5.0 mg/kg/injection, schedule: Q01DX009 (ip), vehicle: water) 90 % of control. For the same compound, the T/C (dose: 10.0 mg/kg/injection, schedule: Q01DX009 (ip), vehicle: water) was 102 % of control.

On to `CNc1nc(N(C)C)nc(N(C)C)n1`, for which the T/C runs as follows: (dose: 6.25 mg/kg/injection, schedule: Q04DX003 (ip), vehicle: water) 105 % of control; (dose: 12.5 mg/kg/injection, schedule: Q04DX003 (ip), vehicle: water) 101 % of control; (dose: 25.0 mg/kg/injection, schedule: Q04DX003 (ip), vehicle: water) 98 % of control; (dose: 50.0 mg/kg/injection, schedule: Q04DX003 (ip), vehicle: water) 112 % of control; (dose: 100.0 mg/kg/injection, schedule: Q04DX003 (ip), vehicle: water) 121 % of control; (dose: 200.0 mg/kg/injection, schedule: Q04DX003 (ip), vehicle: water) 110 % of control.

Regarding `Nc1nncs1`, the T/C was 112 % of control (dose: 50.0 mg/kg/injection, schedule: Q01DX005 (ip), vehicle: saline); 119 % of control under setting [4]; 120 % of control (dose: 100.0 mg/kg/injection, schedule: Q01DX005 (ip), vehicle: saline).
